In PubChem BioAssay (NCI):
Where “and” joins values, the source holds several entries; their conditions need not be identical. Equal values may be shown once.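 How tested: cells in 96-well plates exposed to compound for 48 hours at five concentrations. GI50 = concentration required for 50% inhibition of growth. TGI is the concentration that stops growth completely.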

What was measured:
Test in all cases: NCI-60 cell line screen, 48 h
SF-539 CNS = test system: SF-539 CNS
OVCAR-5 ovarian = test system: OVCAR-5 ovarian
MOLT-4 leukemia = test system: MOLT-4 leukemia
EKVX NSCLC = test system: EKVX NSCLC
SF-295 CNS = test system: SF-295 CNS
HT29 colon = test system: HT29 colon
NCI-H460 lung = test system: NCI-H460 lung
CAKI-1 renal = test system: CAKI-1 renal
SNB-75 CNS = test system: SNB-75 CNS
SW-620 colon = test system: SW-620 colon

SMILES	GI50 (SF-539 CNS) [µM]	TGI (SF-539 CNS)	GI50 (OVCAR-5 ovarian) [µM]	TGI (OVCAR-5 ovarian) [µM]	GI50 (MOLT-4 leukemia) [µM]	TGI (MOLT-4 leukemia)	GI50 (EKVX NSCLC) [µM]	TGI (EKVX NSCLC) [µM]	GI50 (SF-295 CNS) [µM]	GI50 (HT29 colon) [µM]	TGI (HT29 colon)	GI50 (NCI-H460 lung) [µM]	TGI (NCI-H460 lung)	GI50 (CAKI-1 renal) [µM]	TGI (CAKI-1 renal)	GI50 (SNB-75 CNS) [µM]	TGI (SNB-75 CNS)	GI50 (SW-620 colon) [µM]	TGI (SF-295 CNS)	TGI (SW-620 colon)
COc1cc(/C=C/C(=O)c2ccc(F)cc2)ccc1OCCCCOc1cc2c(cc1OC)C(=O)N1CCCC1C=N2 (stereo unspecified)	0.641	1.62 µM	3.85	> 26.6	0.317	2.18 µM	4.05	> 34.9	0.707	0.895	> 20.4 µM	0.83	6.67 µM	1.12	25.6 µM	0.994	15 µM	0.481	–	–
C/C(=N\NC(=O)C[n+]1ccccc1)c1sc(-c2nc(C)c(/C(C)=N/NC(=O)C[n+]3ccccc3)s2)nc1C	–	> 100 µM	–	> 100	–	> 100 µM	–	> 100	–	–	> 100 µM	–	> 100 µM	–	> 100 µM	–	> 100 µM	–	> 100 µM	> 100 µM
CN(C)C(=O)C(NCCO)c1ccccc1 (stereo unspecified)	–	> 100 µM	–	> 100	–	> 100 µM	–	> 100	–	–	> 100 µM	–	> 100 µM	–	> 100 µM	–	> 100 µM	–	> 100 µM	> 100 µM
O=C1C2=C(C(=O)c3c(O)ccc(O)c31)N(c1cccnc1)Cc1ccccc1O2	0.378	1.36 µM	0.564	1.8	0.21	–	1.18	5.74	2.43	0.313	4.23 µM	2.6	6.78 µM	0.103	0.421 µM	0.615	2.15 µM	0.145	8.4 µM	0.357 µM
C=C(C)[C@@H]1CC[C@]2(C(=O)N3CCN(C)CC3)CC[C@]3(C)[C@H](CC[C@@H]4[C@@]5(C)C/C(=C/c6ccncc6)[C@H](O)C(C)(C)[C@@H]5CC[C@]43C)[C@@H]12	4.12	16.5 µM	6.04	26.8	2.36	11 µM	6.04	43.2	7.2	1.88	11.2 µM	3.95	17 µM	5.82	25.5 µM	51.4	> 100 µM	3.75	25.5 µM	17.7 µM
O=C1C[C@@H]2[C@@H](C=CC23CC3)N1O	–	> 100 µM	–	> 100	–	> 100 µM	–	> 100	–	–	> 100 µM	–	> 100 µM	–	> 100 µM	–	> 100 µM	–	> 100 µM	> 100 µM
CCN1C(=O)/C(=C\c2coc3ccccc3c2=O)SC1=S	–	90.1 µM	–	> 100	–	> 100 µM	–	> 100	–	–	> 100 µM	–	> 100 µM	–	> 100 µM	–	> 100 µM	–	> 100 µM	> 100 µM
COc1cccc(-c2cc(C(=O)Nc3ccc(Cl)cc3)nc(N)n2)c1	–	> 100 µM	–	> 100	–	> 100 µM	–	> 100	–	–	> 100 µM	–	> 100 µM	–	> 100 µM	–	68.1 µM	–	> 100 µM	> 100 µM
CC(=O)O[C@H]1CC[C@@]2(C)C(=CC[C@@H]3C2CC[C@]2(C)C(=O)NC(=O)CC32)C1 (stereo partly specified)	–	> 100 µM	–	> 100	–	> 100 µM	–	> 100	–	–	> 100 µM	–	> 100 µM	–	> 100 µM	–	> 100 µM	–	> 100 µM	> 100 µM
CCOc1cccc2sc(N)nc12	–	> 100 µM	–	> 100	–	> 100 µM	–	> 100	–	–	> 100 µM	–	> 100 µM	–	> 100 µM	–	> 100 µM	–	> 100 µM	> 100 µM
C/C(=N\N)C(CN1CCCCC1)C(c1ccccc1)c1c(O)c2ccccc2oc1=O (stereo unspecified)	–	> 100 µM	–	> 100	–	> 100 µM	–	> 100	–	–	> 100 µM	–	> 100 µM	–	> 100 µM	–	> 100 µM	–	> 100 µM	> 100 µM
CC[C@@]1(O)C(=O)OCc2c1cc1n(c2=O)Cc2cc3c([N+](=O)[O-])c(O)ccc3nc2-1	0.0449	0.357 µM	0.879	11.6	0.0227	0.188 µM	13.3	> 100	0.155	2.64	> 100 µM	0.053	1.14 µM	0.0864	8.47 µM	0.151	1.12 µM	0.416	2.2 µM	33.8 µM
CN1C(=O)C(C)(C)NS1(=O)=O	–	> 100 µM	–	> 100	–	> 100 µM	–	> 100	–	–	> 100 µM	–	> 100 µM	–	> 100 µM	–	> 100 µM	–	> 100 µM	> 100 µM
CS(=O)(=O)OCCCCOS(C)(=O)=O	437	250 µM and > 1000 µM	> 698	> 1000	–	233 µM and 992 µM	> 1000	> 1000	423	> 846	250 µM and > 1000 µM	223	242 µM and > 1000 µM	305	212 µM and 980 µM	431	221 µM and > 1000 µM	> 1000	237 µM and > 1000 µM	250 µM and > 1000 µM
O=C(/C=C/c1ccccc1)Nc1ncc(Cc2ccccc2)s1	0.206	0.732 µM	0.469	35.8	0.345	> 100 µM	0.44	> 100	0.202	0.138	> 32.8 µM	0.289	5.01 µM	0.0902	> 50.2 µM	0.138	1.99 µM	0.144	1.96 µM	> 100 µM
O=C(CC(O)c1cccnc1)CC(O)c1cccnc1 (stereo unspecified)	–	53.8 µM	–	54	–	> 52.1 µM	–	43.8	–	–	20.7 µM	–	35.9 µM	–	35.9 µM	–	35.4 µM	–	30.7 µM	19.6 µM
